According to ChEMBL document CHEMBL1201862, “PubChem BioAssay data set” (2004):
The source made the active and inactive calls.

How the values were obtained:
[1] = tested on: HEK293; experiment: inhibition of NOD1-driven NF-kB reporter – cell-based, luminescence, uHTS, primary screen (AID 1578); type: functional; settings: Homo sapiens
[2] = tested on: HEK293; experiment: cells; type: functional, cell-based; settings: Homo sapiens
[3] = tested on: HEK293; experiment: cells; type: functional, cell-based; settings: Homo sapiens; remark: listed apart in the source
[4] = tested on: HEK293; experiment: NOD2 signaling inhibitors in MDP-stimulated cells, cell-based, uHTS, luminescence (AID 2001); type: functional; settings: Homo sapiens
[5] = luciferase reporter signal suppression in cells – H4 neuroglioma cells, luminescence, dose response (AID 1990); type: functional, cell-based
[6] = Luminescence Cell-Based Dose Response HTS to Identify Inhibitors of 5'UTR Stem-Loop Driven Prion Protein mRNA Translation in H4 Neuroglioblastoma Cells. [Related pubchem assays: 1827 (Project Summary), 1813 (Primary HTS)]; type: functional
[7] = alpha-synuclein stem-loop luciferase translation blockers – H4 neuroglioma cells, luminescence, confirmation (AID 1988); type: functional, cell-based
[8] = tested on: HEK293; experiment: cells; settings: Homo sapiens
[9] = tested on: HEK293; experiment: cells; settings: Homo sapiens; remark: listed apart in the source
[10] = tested on: Escherichia coli; experiment: microbe, parasite or virus in culture
[11] = target: Delta-type opioid receptor (Homo sapiens, UniProt P41143); experiment: Counterscreen for agonists of heterodimerization of the mu 1 (OPRM1) and delta 1 (OPRD1) opioid receptors: Luminescence-based cell-based high throughput dose response assay to identify agonists of OPRD1 homodimerization. [Related pubchem assays (depositor defined):AID504326, AID504355, AID504692, AID504904, AID504905]; type: functional
Chain of Delta-type opioid receptor (P41143 whole entry): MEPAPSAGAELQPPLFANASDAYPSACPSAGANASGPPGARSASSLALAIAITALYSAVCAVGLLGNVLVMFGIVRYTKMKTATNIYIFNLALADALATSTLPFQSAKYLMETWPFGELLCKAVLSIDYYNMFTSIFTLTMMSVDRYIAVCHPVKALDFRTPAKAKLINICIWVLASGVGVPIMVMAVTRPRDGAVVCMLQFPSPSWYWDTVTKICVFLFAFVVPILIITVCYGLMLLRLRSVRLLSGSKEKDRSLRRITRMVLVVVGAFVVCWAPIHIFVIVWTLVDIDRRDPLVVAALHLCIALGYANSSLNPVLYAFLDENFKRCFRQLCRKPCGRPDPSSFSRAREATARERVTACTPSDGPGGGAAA

[12] = target: Mu-type opioid receptor (Homo sapiens, UniProt P35372); experiment: Counterscreen for agonists of heterodimerization of the mu 1 (OPRM1) and delta 1 (OPRD1) opioid receptors: Luminescence-based cell-based high throughput dose response assay to identify agonists of OPRM1 homodimerization.; type: functional;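 further: U2OS cells expressing OPRM1 and beta-arrestin as split beta-galactosidase partners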
Chain of Mu-type opioid receptor (P35372 whole entry): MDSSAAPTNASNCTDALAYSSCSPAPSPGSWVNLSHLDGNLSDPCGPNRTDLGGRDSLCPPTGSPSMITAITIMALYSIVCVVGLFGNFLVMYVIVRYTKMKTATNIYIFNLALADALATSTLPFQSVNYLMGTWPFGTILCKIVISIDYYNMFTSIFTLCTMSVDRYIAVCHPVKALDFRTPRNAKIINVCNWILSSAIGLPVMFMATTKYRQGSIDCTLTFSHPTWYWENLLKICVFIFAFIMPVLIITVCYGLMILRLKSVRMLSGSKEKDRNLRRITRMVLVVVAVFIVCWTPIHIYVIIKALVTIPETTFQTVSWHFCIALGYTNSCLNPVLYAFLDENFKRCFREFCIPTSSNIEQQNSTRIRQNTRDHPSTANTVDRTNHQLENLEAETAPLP

[13] = target: 5-hydroxytryptamine receptor 5A (Homo sapiens, UniProt P47898); experiment: Counterscreen for agonists of OPRM1-OPRD1 heterodimerization: luminescence-based cell-based high throughput dose response assay to identify agonists of 5-hydroxytryptamine (serotonin) 5A receptor (HTR5A). [Related pubchem assays (depositor defined):AID504326, AID504355, AID504692, AID504904, AID504905]; type: functional
Chain of 5-hydroxytryptamine receptor 5A (P47898 whole entry): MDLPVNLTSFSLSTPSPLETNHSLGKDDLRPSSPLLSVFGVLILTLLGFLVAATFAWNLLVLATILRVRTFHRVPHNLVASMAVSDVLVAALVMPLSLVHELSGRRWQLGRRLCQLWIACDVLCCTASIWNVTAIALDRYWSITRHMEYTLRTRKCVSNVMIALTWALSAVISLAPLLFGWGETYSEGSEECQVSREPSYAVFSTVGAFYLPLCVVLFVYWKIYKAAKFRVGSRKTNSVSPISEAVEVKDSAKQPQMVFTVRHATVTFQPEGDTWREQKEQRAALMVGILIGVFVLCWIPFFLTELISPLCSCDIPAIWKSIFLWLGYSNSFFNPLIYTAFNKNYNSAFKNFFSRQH

[14] = target: Cytochrome P450 2D6 (Homo sapiens, UniProt P10635);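 further: CYP2D6 member of a cytochrome P450 panel assay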
Chain of Cytochrome P450 2D6 (P10635 whole entry, the tested form may be a part): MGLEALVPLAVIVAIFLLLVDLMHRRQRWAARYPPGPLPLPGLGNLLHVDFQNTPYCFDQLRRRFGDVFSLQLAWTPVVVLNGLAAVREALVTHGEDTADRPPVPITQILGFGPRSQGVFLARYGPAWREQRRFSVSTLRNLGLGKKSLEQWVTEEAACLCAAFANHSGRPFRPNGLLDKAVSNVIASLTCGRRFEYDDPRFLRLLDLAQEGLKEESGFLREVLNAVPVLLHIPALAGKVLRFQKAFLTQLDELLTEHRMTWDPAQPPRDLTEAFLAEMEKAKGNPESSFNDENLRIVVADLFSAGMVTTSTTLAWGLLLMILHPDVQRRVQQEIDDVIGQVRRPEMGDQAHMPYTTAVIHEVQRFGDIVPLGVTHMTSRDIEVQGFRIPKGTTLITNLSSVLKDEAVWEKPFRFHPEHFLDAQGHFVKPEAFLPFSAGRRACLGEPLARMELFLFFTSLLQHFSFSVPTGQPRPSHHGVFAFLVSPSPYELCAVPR

[15] = target: T1, RNA-binding protein pos-1 (Caenorhabditis elegans, UniProt G5EF15); experiment: disruptors of C. elegans POS-1 RNA interaction – biochemical, fluorescence polarization, dose response (AID 1964);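 further: purified POS-1 fused to maltose binding protein made in E. coli; potency of compounds blocking POS-1 binding to fluorescent RNA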
T1 sequence (G5EF15 whole entry): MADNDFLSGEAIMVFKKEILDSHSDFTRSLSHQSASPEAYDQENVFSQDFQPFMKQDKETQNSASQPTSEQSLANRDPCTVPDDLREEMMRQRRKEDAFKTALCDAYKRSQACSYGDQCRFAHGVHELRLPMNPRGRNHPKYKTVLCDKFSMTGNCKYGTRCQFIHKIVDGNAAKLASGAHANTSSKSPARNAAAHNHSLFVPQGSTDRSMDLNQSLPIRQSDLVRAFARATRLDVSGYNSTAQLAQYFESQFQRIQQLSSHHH

[16] = target: T2, Zinc finger protein mex-5 (Caenorhabditis elegans, UniProt Q9XUB2); experiment: potency of MEX-5 RNA-binding blockers – biochemical, C. elegans, fluorescence polarization, dose response (AID 1960)
T2 sequence (Q9XUB2 whole entry): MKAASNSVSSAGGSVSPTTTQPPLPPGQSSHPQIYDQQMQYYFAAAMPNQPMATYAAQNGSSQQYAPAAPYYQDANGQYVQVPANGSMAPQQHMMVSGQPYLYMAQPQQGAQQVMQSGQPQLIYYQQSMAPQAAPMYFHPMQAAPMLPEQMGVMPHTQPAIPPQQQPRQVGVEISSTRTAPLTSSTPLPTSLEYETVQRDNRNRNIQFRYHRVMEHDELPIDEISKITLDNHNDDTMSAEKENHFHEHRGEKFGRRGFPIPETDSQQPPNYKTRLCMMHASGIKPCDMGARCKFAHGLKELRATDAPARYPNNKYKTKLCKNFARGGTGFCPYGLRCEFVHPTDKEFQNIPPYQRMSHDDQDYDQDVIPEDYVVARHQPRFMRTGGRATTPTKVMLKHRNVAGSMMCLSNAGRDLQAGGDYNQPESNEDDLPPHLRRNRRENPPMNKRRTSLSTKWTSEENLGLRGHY

[17] = target: T3, Endoribonuclease toxin MazF (Escherichia coli K-12, UniProt P0AE70); experiment: activation of MazEF endoribonuclease cleavage – biochemical, fluorescence, single-stranded RNA substrate, uHTS hits, dose response (AID 588481); type: functional
T3 sequence (P0AE70 whole entry): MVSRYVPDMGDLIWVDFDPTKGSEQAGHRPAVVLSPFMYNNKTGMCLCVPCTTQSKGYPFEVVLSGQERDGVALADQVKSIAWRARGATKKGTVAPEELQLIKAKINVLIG

[18] = target: T3, Endoribonuclease toxin MazF; experiment: substrate-only fluorescence increase artefacts – biochemical, single-stranded RNase substrate, counter-screen for MazEF activator project, dose response (AID 588502); type: functional
[19] = NIH-3T3 fibroblast cytotoxicity, dose response, cytotoxicity control, cell-based, fluorescence, Alamar Blue, secondary assay (AID 2327); type: functional;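 further: NIH-3T3 mouse fibroblasts cultured with fluconazole at 8 µg/mL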
[20] = fluconazole-exposed Candida albicans growth modulators – fluorescence, retest, confirmation (AID 2467); type: functional, cell-based
[21] = target: T4, Galanin receptor type 3 (Homo sapiens, UniProt O60755); experiment: Fluorescence-based cell-based primary high throughput dose response assay to identify antagonists of the Galanin Receptor 3 (GalR3).; type: functional
T4 sequence (O60755 whole entry): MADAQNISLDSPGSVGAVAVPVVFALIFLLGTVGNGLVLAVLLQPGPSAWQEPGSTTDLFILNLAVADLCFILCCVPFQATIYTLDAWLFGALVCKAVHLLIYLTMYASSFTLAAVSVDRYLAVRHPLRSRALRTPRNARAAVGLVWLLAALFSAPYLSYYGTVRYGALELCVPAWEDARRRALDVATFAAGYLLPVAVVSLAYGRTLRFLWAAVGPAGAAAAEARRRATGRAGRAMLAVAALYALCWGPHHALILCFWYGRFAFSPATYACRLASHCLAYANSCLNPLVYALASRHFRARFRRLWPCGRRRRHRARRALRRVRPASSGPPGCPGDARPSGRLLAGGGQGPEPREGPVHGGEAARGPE

[22] = cells; type: functional, cell-based; settings: HEK-CNG
[23] = target: Cytochrome P450 2C19 (Homo sapiens, UniProt P33261); experiment: Cytochrome panel assay with activity outcomes. Panel member name: p450-cyp2c19 Compounds with AC50 equal or less than 10 uM are considered active; type: functional; settings: read-out: AC50
Chain of Cytochrome P450 2C19 (P33261 whole entry): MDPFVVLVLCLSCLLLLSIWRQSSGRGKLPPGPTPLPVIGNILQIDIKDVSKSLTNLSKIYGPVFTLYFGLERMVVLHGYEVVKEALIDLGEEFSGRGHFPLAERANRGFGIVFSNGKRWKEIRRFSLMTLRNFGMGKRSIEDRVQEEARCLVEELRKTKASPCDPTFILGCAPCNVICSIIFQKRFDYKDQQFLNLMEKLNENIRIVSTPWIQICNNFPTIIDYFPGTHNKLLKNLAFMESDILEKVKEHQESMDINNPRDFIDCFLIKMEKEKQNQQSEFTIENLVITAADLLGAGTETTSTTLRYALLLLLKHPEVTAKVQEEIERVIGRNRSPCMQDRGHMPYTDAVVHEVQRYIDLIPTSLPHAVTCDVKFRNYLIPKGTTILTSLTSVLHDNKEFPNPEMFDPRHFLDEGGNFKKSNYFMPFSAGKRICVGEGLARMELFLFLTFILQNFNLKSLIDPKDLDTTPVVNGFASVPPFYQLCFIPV

[24] = target: T5, Cytochrome P450 1A2 (Homo sapiens, UniProt P05177);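 further: PubChem cytochrome P450 panel assay, CYP1A2 panel member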
T5 sequence (P05177 whole entry): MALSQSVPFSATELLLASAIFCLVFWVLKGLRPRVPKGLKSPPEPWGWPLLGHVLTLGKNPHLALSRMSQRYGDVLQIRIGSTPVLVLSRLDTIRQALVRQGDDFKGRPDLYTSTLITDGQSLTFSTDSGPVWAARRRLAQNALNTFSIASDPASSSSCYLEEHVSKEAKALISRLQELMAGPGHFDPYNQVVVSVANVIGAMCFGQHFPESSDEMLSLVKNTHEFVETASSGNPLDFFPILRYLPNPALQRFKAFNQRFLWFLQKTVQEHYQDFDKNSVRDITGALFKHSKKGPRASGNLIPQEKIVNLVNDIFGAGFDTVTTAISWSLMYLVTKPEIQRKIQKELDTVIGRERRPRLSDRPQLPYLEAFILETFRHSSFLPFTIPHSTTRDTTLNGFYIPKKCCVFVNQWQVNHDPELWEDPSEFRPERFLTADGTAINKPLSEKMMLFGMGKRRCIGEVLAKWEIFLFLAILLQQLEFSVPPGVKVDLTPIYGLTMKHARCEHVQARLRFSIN

[25] = target: Cytochrome P450 3A4 (Homo sapiens, UniProt P08684);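 further: CYP3A4 tested as one member of a cytochrome P450 panel screen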
Chain of Cytochrome P450 3A4 (P08684 whole entry): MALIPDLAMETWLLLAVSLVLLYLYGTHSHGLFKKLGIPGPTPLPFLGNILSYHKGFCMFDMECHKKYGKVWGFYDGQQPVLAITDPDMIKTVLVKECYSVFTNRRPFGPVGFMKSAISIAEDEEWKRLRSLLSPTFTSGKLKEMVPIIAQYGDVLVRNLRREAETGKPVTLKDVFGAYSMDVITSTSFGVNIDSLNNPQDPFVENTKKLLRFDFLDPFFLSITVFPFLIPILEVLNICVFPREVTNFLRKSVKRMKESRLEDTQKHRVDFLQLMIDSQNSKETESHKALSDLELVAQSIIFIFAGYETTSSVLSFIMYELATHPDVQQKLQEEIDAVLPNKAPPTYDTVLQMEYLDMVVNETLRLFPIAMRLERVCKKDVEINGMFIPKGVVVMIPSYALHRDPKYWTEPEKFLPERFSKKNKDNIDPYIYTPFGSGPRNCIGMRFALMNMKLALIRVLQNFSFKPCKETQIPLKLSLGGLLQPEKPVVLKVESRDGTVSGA

O=C(Nc1ccc(Br)c2ccccc12)c1ccc2ccccc2c1O
EC50 [1]: 0.79 µM (active)
IC50 [2]: 2.6 µM (active)
IC50 [3]: 13.7 µM (active)
IC50 [4]: 1.91 µM (active)

COc1ccc(-c2nn3c(C4CCCCC4)nnc3s2)cc1OC
EC50 [5]: 15.5 µM (active)
EC50 [6]: 18.1 µM (active)
EC50 [7]: 13.5 µM (active)
EC50 [8]: > 59.7 µM (inactive)
EC50 [9]: > 59.7 µM (inactive)

CC(C)OC(=O)c1nn2c(C(F)(F)F)cc(-c3ccco3)nc2c1Cl
AC50 [10]: 43.9 µM (active)

C=CCNC(=O)c1ccccc1NC(=O)Nc1ccccc1
AC50 [10]: 44.4 µM (active)

O=C(Nc1ccc(F)c(Cl)c1)c1cccnc1
AC50 [10]: 61.5 µM (active)

O=S(=O)(NC1CC1)c1ccc(S(=O)(=O)N2CCCC3(CCCCC3)C2)cc1
EC50 [11]: > 92.5 µM (inactive)
EC50 [12]: > 92.5 µM (inactive)
EC50 [13]: > 92.5 µM (inactive)

c1cncc(CNCc2cccnc2)c1
AC50 [14]: inconclusive

COc1ccc(NC(=O)c2sc3nc(-c4cccnc4)ccc3c2N)cc1OC
EC50 [15]: 115 µM (inconclusive)
EC50 [16]: > 300 µM (inconclusive)
EC50 [17]: > 99 µM (inactive)
EC50 [18]: 54.5 µM (inactive)

Cc1ccc(-c2nc3sc(C#N)c(N)n3c(=O)c2C#N)cc1
EC50 [19]: > 160 µM (inactive)
EC50 [20]: 1.72 µM (active)
EC50 [17]: > 99 µM (inactive)
EC50 [18]: > 99 µM (inactive)

COc1ccc(NS(=O)(=O)c2ccc(NC(=O)c3ccc(CN4CCOCC4)cc3)cc2)cc1
EC50 [1]: 4.22 µM (active)
IC50 [2]: 5.35 µM (active)
IC50 [3]: > 20 µM (inactive)
IC50 [4]: 7.65 µM (active)
IC50 [21]: 2.94 µM (active)
EC50 [22]: > 29.9 µM (inactive)

CCc1ccc(NC(=O)CCn2nc(C)c(S(=O)(=O)N3CCCCC3)c2C)cc1
EC50 [8]: > 59.7 µM (inactive)
EC50 [9]: > 59.7 µM (inactive)

O=C1C=CC(O)C2(CO)OC12 (stereo unspecified)
EC50 [8]: > 59.6 µM (inactive)
EC50 [9]: > 59.6 µM (inactive)

COc1ccc(-c2nc(CN3CCC(C(=O)NC4CCCc5ccccc54)CC3)c(C)o2)cc1OC (stereo unspecified)
EC50 [11]: > 92.4 µM (inactive)
EC50 [12]: 20.8 µM (inactive)
EC50 [13]: > 92.4 µM (inactive)

CC(C)C(=O)N/N=C/c1ccc(OCc2ccccc2)cc1
AC50 [23]: 10 µM (inconclusive)
AC50 [24]: 15.8 µM (inconclusive)
AC50 [14]: inconclusive
AC50 [25]: inconclusive
